# Reference: patent US7902204B2 (priority 2003, dated 2011)
# Tested on: HIV-1 single-round infectious reporter virus
# Assay: Single-round infectious HIV-1 luciferase reporter virus infection of HeLa CD4 CCR5 cells
# Assay type: cell-based
# Settings: Human immunodeficiency virus 1, HeLa-CD4/CCR5, 72 h, read-out: EC50 Group from Table 1
# Experimental: • Virus production—Human embryonic Kidney cell line, 293, propagated in Dulbecco's Modified Eagle Medium (Life Technologies, Gaithersburg, Md.) containing 10% fetal Bovine serum (FBS, Sigma, St. Louis, Mo.). • Virus infection—Human epithelial cell line, HeLa, expressing the HIV-1 receptors CD4 and CCR5 was propagated in Dulbecco's Modified Eagle Medium (Life Technologies, Gaithersburg, Md.) containing 10% fetal Bovine serum (FBS, Sigma, St. Louis, Mo.) and supplemented with 0.2 mg/mL Geneticin (Life Technologies, Gaithersburg, Md.) and 0.4 mg/mL Zeocin (Invitrogen, Carlsbad, Calif.). Virus-Single-round infectious reporter virus was produced by co-transfecting human embryonic Kidney 293 cells with an HIV-1 envelope DNA expression vector and a proviral cDNA containing an envelope deletion mutation and the luciferase reporter gene inserted in place of HIV-1 nef sequences (Chen et al, Ref 41). Transfections were performed using lipofectAMINE PLUS reagent as described by the manufacturer (Life Technologies, Gaithersburg, Md.). Experiment • 1. Compound was added to HeLa CD4 CCR5 cells plated in 96 well plates at a cell density of 1×10^4 cells per well in 100 μl Dulbecco's Modified Eagle Medium containing 10% fetal Bovine serum at a concentration of <20 μM. • 2. 100 μl of single-round infectious reporter virus in Dulbecco's Modified Eagle Medium was then added to the plated cells and compound at an approximate multiplicity of infection (MOI) of 0.01, resulting in a final volume of 200 μl per well and a final compound concentration of <10 μM. • 3. Samples were harvested 72 h after infection. • 4. Viral infection was monitored by measuring luciferase expression from viral DNA in the infected cells using a luciferase reporter gene assay kit (Roche Molecular Biochemicals, Indianapolis, Ind.). Infected cell supernatants were removed and 50 μl of Dulbecco's Modified Eagle Medium (without phenol red) and 50 μl of luciferase assay reagent reconstituted as described by the manufacturer (Roche Molecular Biochemicals, Indianapolis, Ind.) was added per well. Luciferase activity was then quantified by measuring luminescence using a Wallac microbeta scintillation counter. • 5. The percent inhibition for each compound was calculated by quantifying the level of luciferase expression in cells infected in the presence of each compound as a percentage of that observed for cells infected in the absence of compound and subtracting such a determined value from 100. • 6. An EC50 provides a method for comparing the antiviral potency of the compounds of this invention. The effective concentration for fifty percent inhibition (EC50) was calculated with the Microsoft Excel Xlfit curve fitting software. For each compound, curves were generated from percent inhibition calculated at 10 different concentrations by using a four paramenter logistic model (model 205). Table 1 is the key for the data in Tables 2-4.
row,Structure (SMILES),EC50
1,"O=C(C(=O)N1CCN(c2nccc3ccccc23)CC1)c1c[nH]c2c(Cl)ncnc12 [Example 30, 1-(4-Chloro-5H-pyrrolo[3,2-d]pyrimidin-7-yl)-2-(4-(isoquinolin-1-yl)piperazin-1-yl)ethane-1,2-dione]",< 1000 nM
2,"O=C(C(=O)N1CCN(c2nccc3ccccc23)CC1)c1c[nH]c2c(-c3cnccn3)ncnc12 [Example 31, 1-(4-(Isoquinolin-1-yl)piperazin-1-yl)-2-(4-(pyrazin-2-yl)-5H-pyrrolo[3,2-d]pyrimidin-7-yl)ethane-1,2-dione]",< 1000 nM
3,"O=C(C(=O)N1CCN(c2nccc3ccccc23)CC1)c1c[nH]c2c(-n3cccn3)ncnc12 [Example 32, 1-(4-(1H-Pyrazol-1-yl)-5H-pyrrolo[3,2-d]pyrimidin-7-yl)-2-(4-(isoquinolin-1-yl)piperazin-1-yl)ethane-1,2-dione]",< 1000 nM
4,"N#CC(=C1CCN(C(=O)C(=O)c2c[nH]c3c(Cl)ncnc23)CC1)c1ccccc1 [Example 33, 2-(1-(2-(4-Chloro-5H-pyrrolo[3,2-d]pyrimidin-7-yl)-2-oxoacetyl)piperidin-4-ylidene)-2-phenylacetonitrile]",< 1000 nM
5,"N#CC(=C1CCN(C(=O)C(=O)c2c[nH]c3c(-c4cncnc4)ncnc23)CC1)c1ccccc1 [Example 34, 2-(1-(2-Oxo-2-(4-(pyrimidin-5-yl)-5H-pyrrolo[3,2-d]pyrimidin-7-yl)acetyl)piperidin-4-ylidene)-2-phenylacetonitrile]",< 1000 nM
6,O=C(C(=O)N1CCC(=C(c2ccccc2)c2nnco2)CC1)c1c[nH]c2c(Cl)ncnc12 [Example 35],< 1000 nM
7,"O=C(C(=O)N1CCC(=C(c2ccccc2)c2nnco2)CC1)c1c[nH]c2c(-n3cncn3)ncnc12 [Example 36, 1-(4-((1,3,4-Oxadiazol-2-yl)(phenyl)methylene)piperidin-1-yl) -2-(4-(1H-1,2,4-triazol-1-yl)-5H-pyrrolo[3,2-d]pyrimidin-7-yl)ethane-1,2-dione]",< 1000 nM
8,"O=C(C(=O)N1CCC(=C(c2ccccc2)c2nnco2)CC1)c1c[nH]c2c(-n3cccn3)ncnc12 [Example 37, 1-(4-((1,3,4-Oxadiazol-2-yl)(phenyl)methylene)piperidin-1-yl) -2-(4-(1H-pyrazol-1-yl)-5H-pyrrolo[3,2-d]pyrimidin-7-yl)ethane-1,2-dione]",< 1000 nM
9,"N#CC(=C1CCN(C(=O)C(=O)c2c[nH]c3c(-n4cccn4)ncnc23)CC1)c1ccccn1 [Example 38, 2-(1-(2-(4-(1H-pyrazol-1-yl)-5H-pyrrolo[3,2-d]pyrimidin-7-yl)-2-oxoacetyl)piperidin-4-ylidene)-2-(pyridin-2-yl)acetonitrile]",< 1000 nM
10,"O=C(C(=O)N1CCN(C(=O)c2ccccc2)CC1)c1c[nH]c2c(-n3ccc(-c4ccccn4)n3)ncnc12 [Example 39, 1-(4-Benzoylpiperazin-1-yl)-2-(4-(3-(pyridin-2-yl) -1H-pyrazol-1-yl)-5H-pyrrolo[3,2-d]pyrimidin-7-yl)ethane-1,2-dione]",< 1000 nM
11,"O=C(C(=O)N1CCN(c2ncnc3ccccc23)CC1)c1c[nH]c2c(-n3cccn3)ncnc12 [Example 40, 1-(4-(1H-Pyrazol-1-yl)-5H-pyrrolo[3,2-d]pyrimidin-7-yl)-2-(4-(quinazolin-4-yl)piperazin-1-yl)ethane-1,2-dione]",< 1000 nM
12,"O=C(C(=O)N1CCN(C(=O)c2ccccc2)CC1)c1c[nH]c2c(N3CCN(C(=O)c4cc[nH]n4)CC3)ncnc12 [Example 41, 1-(4-(4-(1H-Pyrazole-3-carbonyl)piperazin-1-yl)-5H -pyrrolo[3,2-d]pyrimidin-7-yl)-2-(4-benzoylpiperazin-1-yl)ethane-1,2-dione]",< 1000 nM
13,"N#CC(=C1CCN(C(=O)C(=O)c2c[nH]c3c(-n4cccn4)ncnc23)CC1)c1ccccc1 [Example 42, 2-(1-(2-(4-(1H-Pyrazol-1-yl)-5H-pyrrolo[3,2-d]pyrimidin-7-yl)-2-oxoacetyl)piperidin-4-ylidene)-2-phenylacetonitrile]",< 1000 nM
14,"N#CC(=C1CCN(C(=O)C(=O)c2c[nH]c3c(-c4cc[nH]n4)ncnc23)CC1)c1ccccc1 [Example 43, 2-(1-(2-(4-(1H-pyrazol-3-yl)-5H-pyrrolo[3,2-d]pyrimidin-7-yl)-2-oxoacetyl)piperidin-4-ylidene)-2-phenylacetonitrile]",< 1000 nM
